Legend:
[1] = test system: recombinant human anti-SARS-CoV antibody 03-018; format: binding; design: Binding of antibody 03-018 to linear peptides of the N protein of SARS-CoV Urbani / Binding of antibody 03-018 to looped/cyclic peptides of the N protein of SARS-CoV Urbani: unit not given here
[2] = test system: control sera (pooled serum of ten healthy LUMC hospital workers; commercial negative donor pooled serum from the Dutch bloodbank); format: binding, human; design: Binding of Control serum LUMC to linear peptides / Binding of Control serum Blood-bank to linear peptides / Binding of Control serum LUMC to looped peptides / Binding of Control Serum Blood-Bank to Looped peptides / Binding of Control serum LUMC to linear peptides of the protein M of SARS-CoV Urbani / Binding of Control serum Blood-bank to linear peptides of the protein M of SARS-CoV Urbani / Binding of Control serum LUMC to looped peptides of the protein M of SARS-CoV Urbani / Binding of Control Serum Blood-Bank to Looped peptides of the protein M of SARS-CoV Urbani: unit not given here
[3] = test system: antibodies in sera from SARS patients (sera 1a, 1b, 2, 6, 37, 62, London, SARS-yellow, SARS-green); format: binding, human; design: Binding of serum 6 to linear peptides of protein X1 of SARS-CoV Urbani / Binding of serum 37 to linear peptides of protein X1 of SARS-CoV Urbani / Binding of serum 6 to looped/cyclic peptide (PEPSCAN-ELISA) / Binding of serum 37 to looped/cyclic peptide (PEPSCAN-ELISA) / Binding of serum 37 to looped/cyclic peptides of protein X1 of SARS-CoV Urbani / Binding of serum 6 to linear peptides of protein X2 / Binding of serum 37 to linear peptides of protein X2 / Binding of serum 37 to looped/cyclic peptides of protein X2 of SARS-CoV Urbani / Binding of serum 6 to linear peptides of protein M of SARS-CoV Urbani / Binding of serum 37 to linear peptides of protein M of SARS-CoV Urbani / Binding of serum 6 to looped/cyclic peptides of protein M of SARS-CoV Urbani / Binding of serum 37 to looped/cyclic peptides of protein M of SARS-CoV Urbani / Binding of serum 6 to linear peptides of protein X3 of SARS-CoV Urbani / Binding of serum 37 to linear peptides of protein X3 of SARS-CoV Urbani / Binding of serum 37 to looped/cyclic peptides of protein X3 of SARS-CoV Urbani / Binding of serum 6 to linear peptides of protein X4 of SARS-CoV Urbani / Binding of serum 37 to linear peptides of protein X4 of SARS-CoV Urbani / Binding of serum 37 to looped/cyclic peptides of protein X4 of SARS-CoV Urbani / Binding of serum 6 to linear peptides of protein X5 of SARS-CoV Urbani / Binding of serum 37 to linear peptides of protein X5 of SARS-CoV Urbani / Binding of serum 37 to looped/cyclic peptides of protein X5 of SARS-CoV Urbani / Binding of serum 6 to linear peptides of protein N of SARS-CoV Urbani / Binding of serum 37 to linear peptides of protein N of SARS-CoV Urbani / Binding of serum 6 to linear peptide (PEPSCAN-ELISA) / Binding of serum 1a to looped/cyclic peptides of protein N of SARS-CoV Urbani / Binding of serum 1b to looped/cyclic peptides of protein N of SARS-CoV Urbani / Binding of serum 2 to looped/cyclic peptides of protein N of SARS-CoV Urbani / Binding of serum 6 to looped/cyclic peptides of protein N of SARS-CoV Urbani / Binding of serum 37 to looped/cyclic peptides of protein N of SARS-CoV Urbani / Binding of serum 62 to looped/cyclic peptides of protein N of SARS-CoV Urbani / Binding of serum London to looped/cyclic peptides of protein N of SARS-CoV Urbani / Binding of serum SARS-green to looped/cyclic peptides of protein N of SARS-CoV Urbani: unit not given here
[4] = test system: rabbit serum obtained by immunizing a rabbit with the SARS-CoV strain Frankfurt 1; format: binding; design: Binding of a rabbit serum to linear peptides / Binding of a rabbit serum to looped peptides / Rabbit serum linear peptides / Rabbit serum looped peptides / Binding of a rabbit serum to linear peptides of protein N of SARS-CoV Urbani (Rabbit serum linear peptides) / Binding of a rabbit serum to looped/cyclic peptides of protein N of SARS-CoV Urbani (Rabbit serum looped peptides): unit not given here

Sequence	Binding of antibody 03-018 to linear peptides of the N protein of SARS-CoV Urbani [1]	Binding of antibody 03-018 to looped/cyclic peptides of the N protein of SARS-CoV Urbani [1]	Binding of Control Serum Blood-Bank to Looped peptides [2]	Binding of Control serum Blood-bank to linear peptides [2]	Binding of Control serum LUMC to linear peptides [2]	Binding of Control serum LUMC to looped peptides [2]	Binding of serum 1a to looped/cyclic peptides of protein N of SARS-CoV Urbani [3]	Binding of serum 1b to looped/cyclic peptides of protein N of SARS-CoV Urbani [3]	Binding of serum 2 to looped/cyclic peptides of protein N of SARS-CoV Urbani [3]	Binding of serum 6 to looped/cyclic peptides of protein N of SARS-CoV Urbani [3]	Binding of serum 37 to looped/cyclic peptides of protein N of SARS-CoV Urbani [3]	Binding of serum 62 to looped/cyclic peptides of protein N of SARS-CoV Urbani [3]	Binding of serum London to looped/cyclic peptides of protein N of SARS-CoV Urbani [3]	Binding of serum SARS-green to looped/cyclic peptides of protein N of SARS-CoV Urbani [3]	Binding of serum SARS-yellow to looped/cyclic peptides of protein N of SARS-CoV Urbani [3]	Binding of a rabbit serum to linear peptides of protein N of SARS-CoV Urbani (Rabbit serum linear peptides) [4]	Binding of a rabbit serum to looped/cyclic peptides of protein N of SARS-CoV Urbani (Rabbit serum looped peptides) [4]	Binding of serum 1a to linear peptides of protein N of SARS-CoV Urbani [3]	Binding of serum 1b to linear peptides of protein N of SARS-CoV Urbani [3]	Binding of serum 2 to linear peptides of protein N of SARS-CoV Urbani [3]	other results
FYAEGSRGGSQASSR	0.1	0.1	0.6	0.8	0.7	0.8	0.3	0.2	0.4	0.3	0.6	0.6	0.4	0.4	0.3	0.3	0.4				Binding of serum 1a to linear peptide (PEPSCAN-ELISA) [3]: 0.3; Binding of serum 1b to linear peptide (PEPSCAN-ELISA) [3]: 0.2; Binding of serum 2 to linear peptide (PEPSCAN-ELISA) [3]: 0.2; Binding of serum 6 to linear peptide (PEPSCAN-ELISA) [3]: 0.3; Binding of serum 37 to linear peptide (PEPSCAN-ELISA) [3]: 0.7; Binding of serum 62 to linear peptide (PEPSCAN-ELISA) [3]: 0.8; Binding of serum London to linear peptide (PEPSCAN-ELISA) [3]: 0.5; Binding of serum SARS-green to linear peptide (PEPSCAN-ELISA) [3]: 0.4; Binding of serum SARS-yellow to linear peptide (PEPSCAN-ELISA) [3]: 0.6
DNGPQSNQRSAPRIT	0.2	0.3	0.5	0.7	0.7	0.4	0.2	0.1	0.1	0.2	0.5	0.3	0.2	0.2	0.1	0.1	0.3	0.2	0.1	0.3	Binding of serum 6 to linear peptides of protein N of SARS-CoV Urbani [3]: 0.2; Binding of serum 37 to linear peptides of protein N of SARS-CoV Urbani [3]: 0.6; Binding of serum 62 to linear peptides of protein N of SARS-CoV Urbani [3]: 0.5; Binding of serum London to linear peptides of protein N of SARS-CoV Urbani [3]: 0.4; Binding of serum SARS-green to linear peptides of protein N of SARS-CoV Urbani [3]: 0.4; Binding of serum SARS-yellow to linear peptides of protein N of SARS-CoV Urbani [3]: 0.5
GIVWVATEGALNTPK	0.1	0.2	0.5	1.0	1.0	0.5	0.3	0.1	0.4	0.2	0.5	0.4	0.4	0.3	0.3	0.2	0.5	0.3	0.2	0.5	Binding of serum 6 to linear peptides of protein N of SARS-CoV Urbani [3]: 0.3; Binding of serum 37 to linear peptides of protein N of SARS-CoV Urbani [3]: 0.9; Binding of serum 62 to linear peptides of protein N of SARS-CoV Urbani [3]: 0.9; Binding of serum London to linear peptides of protein N of SARS-CoV Urbani [3]: 0.6; Binding of serum SARS-green to linear peptides of protein N of SARS-CoV Urbani [3]: 1.0; Binding of serum SARS-yellow to linear peptides of protein N of SARS-CoV Urbani [3]: 0.8
AFFGMSRIGMEVTPS	0.1	0.2					0.4	0.3	0.4	0.2	0.6	0.6	0.4	0.4	0.5	0.1	0.5	0.3	0.1	0.2	Control Serum Blood-Bank Looped peptides [2]: 0.6; Control serum Blood-bank linear peptides [2]: 0.7; Control serum LUMC linear peptides [2]: 0.6; Control serum LUMC looped peptides [2]: 0.8; Binding of serum 6 to linear peptides of protein N of SARS-CoV Urbani [3]: 0.2; Binding of serum 37 to linear peptides of protein N of SARS-CoV Urbani [3]: 0.6; Binding of serum 62 to linear peptides of protein N of SARS-CoV Urbani [3]: 0.7; Binding of serum London to linear peptides of protein N of SARS-CoV Urbani [3]: 0.5; Binding of serum SARS-green to linear peptides of protein N of SARS-CoV Urbani [3]: 0.2; Binding of serum SARS-yellow to linear peptides of protein N of SARS-CoV Urbani [3]: 0.5
